Tested on: B16F1 melanoma
Test: B16F1 melanoma xenograft in BALB/c mice
Format: in vivo, mouse
Experimental: BALB/c mice (6–8 weeks old, 18–22 g) were supplied by Model Animal Research Centre of Nanjing University (Nanjing, China). Mice were maintained under standard specific-pathogen-free (SPF) conditions (21 ± 2 °C and 12-h light: dark cycle). Animal welfare and experimental procedures were carried out strictly in accordance with the Guide for the Care and Use of Laboratory Animals (The Ministry of Science and Technology of China, 2006) and the related ethical regulations of our university. All efforts were made to minimise animals’ suffering and to reduce the number of animals used. Mouse colon cancer cells (CT26) and melanoma cells (B16F1) were cultured and collected by centrifugation (1000 rpm, 5 min) and washed twice with ice-cold PBS. Then cells were diluted to 1 × 10^7/ml and 1 × 10^6 CT26/B16F1 cells (in 0.1 ml PBS) were injected subcutaneously into the right flanks of mice. All mice formed tumours three days after injection. Then mice were randomly distributed into five groups (n = 10/8) according to tumour volumes. 5d ([…], 12.5 mg/kg) were administered (i.g) to each group respectively every day. 5-FU (25 mg/kg) and Cis-platinum (1 mg/kg) were administered (i.p) every three days. Tumour length and tumour width were measured with a Vernier calliper every three days. Tumour volumes were measured and calculated using the equation volume = a × b^2/2, where “a” is the maximal […] and “b” is maximal orthogonal width. After the administration were completed, mice were weighed, euthanized, and tumours were removed and the weight were taken.
For immunohistochemistry staining, the sections were deparaffinized, rehydrated, and washed in 1% PBS-Tween 20, and then treated with 2% hydrogen peroxide, blocked with 3% goat serum (Life Technology, 16210–064) and incubated for 2 h at room temperature with specific primary antibodies. Then the slides were incubated with streptavidin-HRP (Shanghai Gene Company, GK500705) for 40 min, then stained with DAB (Shanghai Gene Company, GK500705) substrate and counter-stained with haematoxylin. Images were acquired by microscopy (Olympus IX51).
In addition, we also utilised a B16F1 melanoma mouse xenograft model to observe the efficacy of compound 5d on the other tumours. Malignant melanoma is a highly invasive tumour and its immunotherapy has been receiving attention in recent years. As mentioned above, B16F1 is a murine melanoma cell line that expresses IDO1. The mouse xenograft model was established by subcutaneously implanting B16F1 melanoma cells into BALB/c mice and treated with 5d (3.125, 6.25, 12.5 mg/kg, i.g, every day) or the positive control Cis-platinum (1 mg/kg, i.p, every other day). Tumour volumes were measured every two days for 11 days.
Figure 13. Compound 5d suppressed melanoma growth in mice. 1 × 10^6 melanoma cells were transplanted subcutaneously into the armpit of the BALB/c mice. Three days after transplantation, mice were randomly allocated to vehicle control or treatment groups (n = 6). Drugs were administered on days 1–11. (A) Tumour volume and mouse body weight (B) were recorded. After sacrifice, solid tumours were separated and weighed (C, D). Data represent mean ± SEM, n = 6, *p < 0.05, **p < 0.01 vs vehicle.
Analogously, we also performed H&E, IHC and TUNEL experiments on the B16F1 melanoma tissues (Figure 14 and 15).

C=CC(=O)Nc1ccc(S(=O)(=O)NCc2cccc(Cl)c2)cc1 [5d, N-(4-(N-(3-Chlorobenzyl)sulfamoyl)phenyl)acrylamide]
IFN-γ expression (IHC) (B16F1 melanoma tissue): up-regulating IFN-γ expression | granzyme B (IHC) (B16F1 melanoma tissue): stimulating granzyme B secretion | number of tumour cells (H&E, PCNA, TUNEL) (B16F1 melanoma tissue): reduce the number of tumour cells by inhibiting proliferation and inducing apoptosis | tumour growth (tumour volume and tumour weight) (BALB/c mice, 3.125, 6.25, 12.5 mg/kg, i.g, every day, 11 days, vs vehicle): significantly suppressed the growth of tumour in a dose-dependent manner | body weight (BALB/c mice, 3.125-12.5 mg/kg i.g, 11 days): without significant body weight loss | reduction of average volume of tumour (BALB/c mice, high dose, 11 days): 34.3%

— article PMC7336998, “Discovery of secondary sulphonamides as IDO1 inhibitors with potent antitumour effects in vivo” (Journal of Enzyme Inhibition and Medicinal Chemistry, 2020)
